Laboratory results published in patent US20240059703A1 (AMGEN INC., priority 2021, published 2024).

How the values were obtained:
[1] = tested on: A549 (human lung carcinoma) cells; assay: Cell Viability Assay (CellTiter-Glo), A549; assay type: cell-based; conditions: Homo sapiens, A549, 72 h
How it was run: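 Seeding at 1.67E+04 cells/mL is followed by overnight attachment at 37° C., 5% CO2. Serially diluted compound is added for 72 h. Viability is read by CellTiter-Glo luminescence, scaled to DMSO and fitted (4-parameter logistic) to give IC50.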

[2] = tested on: MIA PaCa-2 (human pancreatic carcinoma) cells; assay: Cell Viability Assay (CellTiter-Glo), MIA PaCa-2; assay type: cell-based; conditions: Homo sapiens, MIA PaCa-2, 72 h
Description: Serially-diluted compound or DMSO was added to the cells, and plates were incubated at 37° C., 5% CO2 for 72 h. Cell viability was measured using a CellTiter-Glo® Luminescent Cell Viability Assay kit (Promega) according to the manufacturer's protocol. The luminescence signal of treated samples was normalized to DMSO control, and data were analyzed using a 4-parameter logistic model to calculate IC50 values.

KRAS G12C = KRAS G12C (Homo sapiens (Human), UniProt P01116, C118A/G12C); assay: 2 h coupled exchange assay; assay type: biochemical; conditions: Avg 2 h Coupled exchange IC50, 2 h compound pre-incubation
Description: The term “2 h coupled exchange assay” or “20 h coupled exchange assay” as used herein refers to the assay described in the Section entitled “BIOLOGICAL EVALUATION.”

KRAS G12C, sequence (P01116 other isoform, or with tags, fused parts or gaps G12C/C118A): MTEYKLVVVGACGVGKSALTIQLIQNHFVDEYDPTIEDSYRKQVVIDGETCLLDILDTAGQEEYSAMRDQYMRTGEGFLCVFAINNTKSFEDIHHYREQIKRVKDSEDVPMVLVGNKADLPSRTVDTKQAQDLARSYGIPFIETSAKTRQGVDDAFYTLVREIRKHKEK

IC50 [1] [µM]	IC50 [2] [µM]	IC50 (KRAS G12C) [µM]	Structure (SMILES)
9.15	0.817	0.124	C=CC(=O)N1CC2(CCN(c3nc4cc(-c5scnc5COC)ccc4c(-c4ccccc4F)c3C#N)C2)C1 [Example 20-16, 4-(2-fluorophenyl)-7-(4-(methoxymethyl)-1,3-thiazol-5-yl)-2-(2-(2-propenoyl)-2,6-diazaspiro[3.4]octan-6-yl)-3-quinolinecarbonitrile]
7.58	1.82	0.431	C=CC(=O)N1CC2(CCN(c3nc4cc(-c5scnc5C)ccc4c(-c4ccccc4OC)c3C#N)C2)C1 [Example 20-17, 4-(2-methoxyphenyl)-7-(4-methyl-1,3-thiazol-5-yl)-2-(2-(2-propenoyl)-2,6-diazaspiro[3.4]octan-6-yl)-3-quinolinecarbonitrile]
> 5	0.651	0.095	C=CC(=O)N1CC2(CCN(c3nc4cc(-c5scnc5CO)ccc4c(-c4ccccc4F)c3C#N)C2)C1 [Example 20-18, 4-(2-fluorophenyl)-7-(4-(hydroxymethyl)-1,3-thiazol-5-yl)-2-(2-(2-propenoyl)-2,6-diazaspiro[3.4]octan-6-yl)-3-quinolinecarbonitrile]
4.77	2.07	0.325	C=CC(=O)N1CC2(CCN(c3nc4cc(-c5cncs5)ccc4c(-c4ccccc4F)c3C#N)C2)C1 [Example 20-19, 4-(2-fluorophenyl)-2-(2-(2-propenoyl)-2,6-diazaspiro[3.4]octan-6-yl)-7-(1,3-thiazol-5-yl)-3-quinolinecarbonitrile]
6.85	1.75	0.162	C=CC(=O)N1CC2(CCN(c3nc4cc(-c5scnc5C)ccc4c(-c4ccccc4O)c3C#N)C2)C1 [Example 20-20, 4-(2-hydroxyphenyl)-7-(4-methyl-1,3-thiazol-5-yl)-2-(2-(2-propenoyl)-2,6-diazaspiro[3.4]octan-6-yl)-3-quinolinecarbonitrile]
10.8	4.97	0.958	C=CC(=O)N1CC2(CCN(c3nc4cc(-c5scnc5C)cnc4c(-c4cccc(O)c4)c3C#N)C2)C1 [Example 20-21, 4-(3-hydroxyphenyl)-7-(4-methyl-1,3-thiazol-5-yl)-2-(2-(2-propenoyl)-2,6-diazaspiro[3.4]octan-6-yl)-1,5-naphthyridine-3-carbonitrile]
12.1	7.48	0.371	C=CC(=O)N1CC2(CCN(c3nc4cc(-c5scnc5C)cnc4c(-c4ccc(F)c(O)c4)c3C#N)C2)C1 [Example 20-22, 4-(4-fluoro-3-hydroxyphenyl)-7-(4-methyl-1,3-thiazol-5-yl)-2-(2-(2-propenoyl)-2,6-diazaspiro[3.4]octan-6-yl)-1,5-naphthyridine-3-carbonitrile]
> 5	0.327	0.041	C=CC(=O)N1CC2(CCN(c3nc4c(c(-c5ccccc5F)c3C#N)CCN(c3scnc3C)C4)C2)C1 [Example 21-1, 4-(2-fluorophenyl)-7-(4-methyl-1,3-thiazol-5-yl)-2-(2-(2-propenoyl)-2,6-diazaspiro[3.4]octan-6-yl)-5,6,7,8-tetrahydro-1,7-naphthyridine-3-carbonitrile]
> 5	0.805	0.189	C=CC(=O)N1CC2(CCN(c3nc4c(c(-c5ccccc5F)c3C#N)CCN(c3ccnn3C)C4)C2)C1 [Example 21-2, 4-(2-fluorophenyl)-7-(1-methyl-1H-pyrazol-5-yl)-2-(2-(2-propenoyl)-2,6-diazaspiro[3.4]octan-6-yl)-5,6,7,8-tetrahydro-1,7-naphthyridine-3-carbonitrile]
> 5	0.19	0.025	C=CC(=O)N1CC2(CCN(c3nc4c(c(-c5ccc(F)cc5F)c3C#N)CCN(c3scnc3C)C4)C2)C1 [Example 21-3, 4-(2,4-difluorophenyl)-7-(4-methyl-1,3-thiazol-5-yl)~2-(2-(2-propenoyl)-2,6-diazaspiro[3.4]octan-6-yl)-5,6,7,8-tetrahydro-1,7-naphthyridine-3~carbonitrile]
10.1	1.61	0.085	C=CC(=O)N1CC2(CCN(c3nc4c(c(-c5ccccc5F)c3C#N)CCN(c3scnc3C)C4C)C2)C1 [Example 21-4, (8R)-4-(2-fluorophenyl)-8-methyl-7-(4-methyl-1,3-thiazol-5-yl)-2-(2-(2-propenoyl)-2,6-diazaspiro[3.4]octan-6-yl)-5,6,7,8-tetrahydro-1,7-naphthyridine-3-carbonitrile (8S)-4-(2-fluorophenyl)-8-methyl-7-(4-methyl-1,3-thiazol-5-yl)-2-(2-(2-propenoyl)-2,6-diazaspiro[3.4]octan-6-yl)-5,6,7,8-tetrahydro-1,7-naphthyridine-3-carbonitrile]
3.98	0.454	0.057	C=CC(=O)N1CC2(CCN(c3nc4c(c(-c5ccccc5F)c3C#N)CCN(c3scnc3C)[C@@H]4C)C2)C1 [Example 21-5, (8R)-4-(2-fluorophenyl)-8-methyl-7-(4-methyl-1,3-thiazol-5-yl)-2-(2-(2-propenoyl)-2,6-diazaspiro[3.4]octan-6-yl)-5,6,7,8-tetrahydro-1,7-naphthyridine-3-carbonitrile]

Continued, molecule first:

Structure (SMILES)	IC50 [1] [µM]	IC50 [2] [µM]	IC50 (KRAS G12C) [µM]
C=CC(=O)N1CC2(CCN(c3nc4cc(-c5scnc5C)ccc4c(-c4ccccc4F)c3C#N)C2)C1 [Example 20-2, 4-(2-fluorophenyl)-7-(4-methyl-1,3-thiazol-5-yl)-2-(2-(2-propenoyl)-2,6-diazaspiro[3.4]octan-6-yl)-3-quinolinecarbonitrile]	> 5	1.44	0.146
C=CC(=O)N1CC2(CCN(c3nc4cc(OC)ccc4c(-c4ccccc4Cl)c3C#N)C2)C1 [Example 20-5, 4-(2-chlorophenyl)-7-methoxy-2-(2-(2-propenoyl)-2,6-diazaspiro[3.4]octan-6-yl)-3-quinolinecarbonitrile]	9.11	5.51	0.572
C=CC(=O)N1CC2(CCN(c3nc4cc(-c5scnc5C)ccc4c(-c4cccc(C)c4C)c3C#N)C2)C1 [Example 20-6, 4-(2,3-dimethylphenyl)-7-(4-methyl-1,3-thiazol-5-yl)-2-(2-(2-propenoyl)-2,6-diazaspiro[3.4]octan-6-yl)-3-quinolinecarbonitrile]	> 5	1.55	0.124
C=CC(=O)N1CC2(CCN(c3nc4cc(-c5scnc5C)cnc4c(-c4ccccc4Cl)c3C#N)C2)C1 [Example 20-7, 4-(2-chlorophenyl)-7-(4-methyl-1,3-thiazol-5-yl)-2-(2-(2-propenoyl)-2,6-diazaspiro[3.4]octan-6-yl)-1,5-naphthyridine-3-carbonitrile]	> 5	0.534	0.131
C=CC(=O)N1CC2(CCN(c3nc4cc(-c5scnc5C)c(C)cc4c(-c4ccccc4Cl)c3C#N)C2)C1 [Example 20-10, 2-(2-acryloyl-2,6-diazaspiro[3.4]octan-6-yl)-4-(2-chlorophenyl)-6-methyl-7-(4-methylthiazol-5-yl)quinoline-3-carbonitrile]	6.78	5.38	0.89
C=CC(=O)N1CC2(CCN(c3nc4cc(OC(C)C)ccc4c(-c4ccccc4Cl)c3C#N)C2)C1 [Example 20-11, 4-(2-chlorophenyl)-7-(2-propanyloxy)-2-(2-(2-propenoyl)-2,6-diazaspiro[3.4]octan-6-yl)-3-quinolinecarbonitrile]	8.81	3.1	0.834
C=CC(=O)N1CC2(CCN(c3nc4cc(-c5cncnc5)ccc4c(-c4ccc(F)cc4F)c3C#N)C2)C1 [Example 20-12, 4-(2,4-difluorophenyl)-2-(2-(2-propenoyl)-2,6-diazaspiro[3.4]octan-6-yl)-7-(5-pyrimidinyl)-3-quinolinecarbonitrile]	> 25	2.06	0.245
C=CC(=O)N1CC2(CCN(c3nc4cc(-c5scnc5C)ccc4c(-c4ccc(F)cc4F)c3C#N)C2)C1 [Example 20-13, 4-(2,4-difluorophenyl)-7-(4-methyl-1,3-thiazol-5-yl)-2-(2-(2-propenoyl)-2,6-diazaspiro[3.4]octan-6-yl)-3-quinolinecarbonitrile]	5.98	1.07	0.104
C=CC(=O)N1CC2(CCN(c3nc4cc(-c5nccn5C)ccc4c(-c4ccc(F)cc4F)c3C#N)C2)C1 [Example 20-14, 4-(2,4-difluorophenyl)-7-(1-methyl-1H-imidazol-2-yl)-2-(2-(2-propenoyl)-2,6-diazaspiro[3.4]octan-6-yl)-3-quinolinecarbonitrile]	9.15	1.35	0.243
C=CC(=O)N1CC2(CCN(c3nc4cc(-c5scnc5C)cnc4c(-c4ccccc4F)c3C#N)C2)C1 [Example 20-15, 4-(2-fluorophenyl)-7-(4-methyl-1,3-thiazol-5-yl)-2-(2-(2-propenoyl)-2,6-diazaspiro[3.4]octan-6-yl)-1,5-naphthyridine-3-carbonitrile]	> 5	0.649	0.116
